Where a SMILES comes first, the peptide text is derived from it.

For series [1], the target named is T1, DPP-IV (Homo sapiens, UniProt P27487). The experiment in a line: Surface plasmon resonance (Biacore 8K, CM5 chip, 25 °C). Format: binding. On the set-up: purchased QiZheng Biotech (Shanghai, China) IBDPP0901. The conditions noted are these: SPR, Table S3; read-out: KD values.
Series [2] addresses T1, DPP-IV. The experiment in a line: DPP-IV inhibitory activity of peptides (DPP-IV-Glo Protease Assay Kit). More on the design: purchased QiZheng Biotech (Shanghai, China) IBDPP0901. The conditions noted are these: for DPP-IV inhibitory activity: DPP-IV-Glo Protease Assay Kit, control = 0, sheet S2F, in % (unit assumed). Format: biochemical.
Target sequence in this assay (P27487 whole entry): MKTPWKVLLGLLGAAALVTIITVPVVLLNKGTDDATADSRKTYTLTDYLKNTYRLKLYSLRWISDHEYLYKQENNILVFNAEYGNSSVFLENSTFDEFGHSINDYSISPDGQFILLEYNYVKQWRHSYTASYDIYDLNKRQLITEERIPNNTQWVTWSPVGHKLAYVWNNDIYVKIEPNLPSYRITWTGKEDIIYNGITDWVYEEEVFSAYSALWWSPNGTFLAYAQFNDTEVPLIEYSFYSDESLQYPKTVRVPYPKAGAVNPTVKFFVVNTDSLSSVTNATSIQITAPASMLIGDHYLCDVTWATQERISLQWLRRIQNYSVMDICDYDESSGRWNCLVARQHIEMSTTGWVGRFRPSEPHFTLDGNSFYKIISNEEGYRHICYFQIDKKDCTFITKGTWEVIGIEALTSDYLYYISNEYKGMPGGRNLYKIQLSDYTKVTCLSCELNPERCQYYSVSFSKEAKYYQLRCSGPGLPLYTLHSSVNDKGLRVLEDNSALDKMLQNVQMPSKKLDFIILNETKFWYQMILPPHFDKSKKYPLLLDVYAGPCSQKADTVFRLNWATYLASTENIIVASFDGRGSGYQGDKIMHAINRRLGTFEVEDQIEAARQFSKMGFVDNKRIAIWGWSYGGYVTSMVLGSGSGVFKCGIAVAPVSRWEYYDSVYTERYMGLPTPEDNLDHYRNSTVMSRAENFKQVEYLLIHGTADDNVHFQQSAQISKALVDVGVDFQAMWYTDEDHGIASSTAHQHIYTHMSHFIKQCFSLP
A further series in a line: in vitro. Format: in vitro ADME, Akkermansia muciniphila. The conditions noted are these: cells or culture medium, VAMP remaining, incubated with A. muciniphila. The source says: The levels of VAMP at different time points were quantified by targeted metabolomics.

For the compound `CSCC[C@H](NC(=O)[C@H](C)NC(=O)[C@@H](N)C(C)C)C(=O)N1CCC[C@H]1C(=O)O` [VAMP] (H-VAMP-OH), the Kd on DPP-IV [1] was 6.89 µM. In addition, at DPP-IV [2], the inhibition at 1 µg/mL worked out at 50.7%, at 20 µg/mL the inhibition was 52.1%, the inhibition at 50 µg/mL is 68.9% and testing at 100 µg/mL gave an inhibition of 77.6%. On DPP-IV [2], this compound came in with an inhibition at 200 µg/mL of 81.5%. In addition, at DPP-IV [2] (replicate 1), the DPP-IV inhibitory activity is on record as 68.9829. At DPP-IV [2] (replicate 2), this compound yielded a DPP-IV inhibitory activity of 67.7707. In addition, the DPP-IV inhibitory activity at DPP-IV [2] (replicate 3) came to 61.9665. The IC50 at DPP-IV [2] (Table S3, read-out: IC50) is 1 µM. Besides, in the series “in vitro” (time 3), the fraction remaining at 3 h, 100 μM is 98.6%. In the series “in vitro” (time 6), the fraction remaining at 6 h, 100 μM was 95.4%. The compound also showed an amount remaining at 9 h, 100 μM in “in vitro” (time 9) of 93.3%. Further, the share remaining at 12 h, 100 μM in the series “in vitro” (time 12) came to 79.6%. This compound also registered a fraction remaining at 24 h, 100 μM in “in vitro” (time 24) of 28.1%. In the series “in vitro” (time 36), the share remaining at 36 h, 100 μM was found to be 21.4%. This compound also registered a fraction remaining at 48 h, 100 μM in the series “in vitro” (time 48) of 19.3%.
